Test results: the supplement of paper PMC10307832

What follows are cell lines tested with CC1(COc2ccc3c(c2)ncn3-c2ccc3cccc(N4CCC(N)CC4)c3n2)COC1 [Crenolanib] + O=C(c1cc(Cc2n[nH]c(=O)c3ccccc23)ccc1F)N1CCN(C(=O)C2CC2)CC1 [Olaparib] (partner 8 µM) (assay: relative viability (nuclei count vs DMSO), 5 days (fraction); higher = more cells survive). Conditions: first compound 0.3162 µM.
In short: (§1)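 Relative viability equals treated-well nuclei counts divided by vehicle-well nuclei counts. Counts came from 4× images of lung cancer cell lines grown in 1536-well plates for 5 days after pin-tool dosing on the day after seeding. Dosing used one drug alone or a fixed anchor-drug dose plus five library-drug doses (not always all listed) in √10 steps, and values are medians of duplicate plates.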

Compared with IA-LM, HCC-78 is higher in relative viability: 0.817 for the first, 0.826 for the second.

Compared with A549, SW 900 is higher in relative viability: 0.421 for the first, 0.959 for the second.

Compared with LXF-289, BEN is lower in relative viability: 1.16 for the first, 1.01 for the second.

First: NCI-H1648
Second: NCI-H2023
The relative viability of the first is higher: 0.899 for the first, 0.451 for the second.

Going from NCI-H520 to SW 1573, the relative viability rises from 0.288 to 0.651.

Going from NCI-H1299 to CAL-12T, the relative viability falls from 0.978 to 0.771.

Going from NCI-H1650 to SK-LU-1, the relative viability falls from 0.82 to 0.7.

In the case of NCI-H661, the relative viability was 0.811.

Same assay, conditions: first compound 1 µM

Going from NCI-H522 to NCI-H838, the relative viability rises from 0.62 to 0.635.

Compared with NCI-H1651, EBC-1 is higher in relative viability: 0.166 for the first, 0.641 for the second.

Going from NCI-H1734 to NCI-H2009, the relative viability falls from 0.605 to 0.555.

Going from EPLC-272H to PC-14, the relative viability falls from 0.989 to 0.257.

Going from LCLC-97TM1 to NCI-H596, the relative viability rises from 0.412 to 0.681.

First: NCI-H2228
Second: EMC-BAC-2
The relative viability of the first is higher: 0.686 for the first, 0.462 for the second.

Compared with NCI-H2087, Calu-6 is lower in relative viability: 0.623 for the first, 0.556 for the second.

First: HCC-44
Second: NCI-H1703
The relative viability of the first is higher: 0.991 for the first, 0.192 for the second.

Compared with NCI-H647, LK-2 is lower in relative viability: 0.586 for the first, 0.585 for the second.

First: NCI-H2126
Second: NCI-H2342
The relative viability of the first is higher: 0.952 for the first, 0.494 for the second.

Compared with SK-MES-1, HARA is higher in relative viability: 0.674 for the first, 0.683 for the second.

First: COR-L23
Second: COR-L 105
The relative viability of the first is lower: 0.291 for the first, 0.584 for the second.

First: LC-2-ad
Second: LU99A
The relative viability of the first is higher: 0.65 for the first, 0.27 for the second.

First: ChaGo-K-1
Second: NCI-H2170
The relative viability of the first is lower: 0.45 for the first, 0.671 for the second.

First: NCI-H3122
Second: IA-LM
The relative viability of the first is lower: 0.61 for the first, 0.883 for the second.

Compared with HCC-78, A549 is lower in relative viability: 0.745 for the first, 0.365 for the second.

Compared with SW 900, LXF-289 is higher in relative viability: 0.979 for the first, 1.08 for the second.

Going from BEN to NCI-H1648, the relative viability falls from 1.05 to 0.853.

Compared with NCI-H2023, NCI-H520 is higher in relative viability: 0.322 for the first, 0.338 for the second.

Going from SW 1573 to NCI-H1299, the relative viability rises from 0.484 to 0.935.

Going from CAL-12T to NCI-H1650, the relative viability falls from 0.725 to 0.607.

Going from SK-LU-1 to NCI-H661, the relative viability rises from 0.534 to 0.81.

The cell lines below were run with O=C1NC(=O)[C@@H](c2cn3c4c(cccc24)CCC3)[C@@H]1c1c[nH]c2ccccc12 [Tivantinib] + CS(=O)(=O)N1CCN(Cc2cc3nc(-c4cccc5[nH]ncc45)nc(N4CCOCC4)c3s2)CC1 [Pictilisib] (partner 1 µM) in the same assay as above. Conditions: first compound 0.01 µM.
In short: as §1

Compared with NCI-H838, NCI-H1651 is higher in relative viability: 0.442 for the first, 0.622 for the second.

Going from EBC-1 to NCI-H1734, the relative viability falls from 0.492 to 0.479.

Going from NCI-H2009 to EPLC-272H, the relative viability falls from 0.875 to 0.346.

First: PC-14
Second: LCLC-97TM1
The relative viability of the first is higher: 0.584 for the first, 0.199 for the second.

Compared with NCI-H596, NCI-H2228 is lower in relative viability: 0.427 for the first, 0.405 for the second.

First: EMC-BAC-2
Second: NCI-H2087
The relative viability of the first is lower: 0.562 for the first, 0.958 for the second.

Going from Calu-6 to HCC-44, the relative viability falls from 0.917 to 0.69.

First: NCI-H1703
Second: NCI-H647
The relative viability of the first is lower: 0.215 for the first, 0.45 for the second.

Compared with LK-2, NCI-H2126 is lower in relative viability: 0.685 for the first, 0.51 for the second.

First: SK-MES-1
Second: HARA
The relative viability of the first is higher: 0.413 for the first, 0.389 for the second.

Going from COR-L23 to COR-L 105, the relative viability falls from 0.809 to 0.401.

Compared with LC-2-ad, LU99A is lower in relative viability: 0.462 for the first, 0.288 for the second.

Going from ChaGo-K-1 to NCI-H2170, the relative viability falls from 0.851 to 0.298.

Going from NCI-H3122 to IA-LM, the relative viability falls from 0.585 to 0.401.

First: HCC-78
Second: A549
The relative viability of the first is lower: 0.241 for the first, 0.495 for the second.

Going from LXF-289 to BEN, the relative viability falls from 0.815 to 0.703.

Compared with NCI-H2023, NCI-H520 is higher in relative viability: 0.246 for the first, 0.292 for the second.

Compared with SW 1573, NCI-H1299 is higher in relative viability: 0.491 for the first, 0.9 for the second.

Going from CAL-12T to NCI-H1563, the relative viability rises from 0.393 to 0.608.

First: NCI-H1650
Second: SK-LU-1
The relative viability of the first is lower: 0.561 for the first, 0.669 for the second.

Work on NCI-H661 yielded a relative viability of 0.472.

Same assay, conditions: first compound 0.03162 µM

First: NCI-H838
Second: NCI-H1651
The relative viability of the first is higher: 0.479 for the first, 0.448 for the second.

Compared with EBC-1, NCI-H1734 is lower in relative viability: 0.444 for the first, 0.395 for the second.

Going from NCI-H2009 to EPLC-272H, the relative viability falls from 0.464 to 0.3.

Compared with PC-14, LCLC-97TM1 is lower in relative viability: 0.718 for the first, 0.14 for the second.

Going from NCI-H596 to NCI-H2228, the relative viability falls from 0.39 to 0.345.

Going from EMC-BAC-2 to NCI-H2087, the relative viability rises from 0.511 to 0.757.

Compared with Calu-6, HCC-44 is lower in relative viability: 0.931 for the first, 0.523 for the second.

Compared with NCI-H1703, NCI-H647 is higher in relative viability: 0.24 for the first, 0.341 for the second.

Going from NCI-H2126 to SK-MES-1, the relative viability falls from 0.446 to 0.368.

First: HARA
Second: COR-L23
The relative viability of the first is lower: 0.237 for the first, 0.63 for the second.

First: COR-L 105
Second: LC-2-ad
The relative viability of the first is lower: 0.335 for the first, 0.354 for the second.

Going from LU99A to ChaGo-K-1, the relative viability rises from 0.308 to 0.608.

Going from NCI-H2170 to NCI-H3122, the relative viability rises from 0.222 to 0.599.

First: IA-LM
Second: HCC-78
The relative viability of the first is higher: 0.334 for the first, 0.177 for the second.

Compared with A549, LXF-289 is higher in relative viability: 0.518 for the first, 0.769 for the second.

Going from BEN to NCI-H2023, the relative viability falls from 0.41 to 0.225.

Going from NCI-H520 to SW 1573, the relative viability rises from 0.237 to 0.52.

Going from NCI-H1299 to CAL-12T, the relative viability falls from 0.857 to 0.377.

First: NCI-H1563
Second: NCI-H1650
The relative viability of the first is higher: 0.6 for the first, 0.389 for the second.

Going from SK-LU-1 to NCI-H661, the relative viability falls from 0.524 to 0.394.

Same assay, conditions: first compound 0.1 µM

Compared with NCI-H838, NCI-H1651 is higher in relative viability: 0.389 for the first, 0.545 for the second.

Going from EBC-1 to NCI-H1734, the relative viability falls from 0.471 to 0.416.

First: NCI-H2009
Second: EPLC-272H
The relative viability of the first is higher: 0.767 for the first, 0.357 for the second.

Going from PC-14 to LCLC-97TM1, the relative viability falls from 0.723 to 0.234.

Compared with NCI-H596, NCI-H2228 is higher in relative viability: 0.379 for the first, 0.458 for the second.

First: EMC-BAC-2
Second: NCI-H2087
The relative viability of the first is lower: 0.567 for the first, 0.909 for the second.

Compared with Calu-6, HCC-44 is lower in relative viability: 0.901 for the first, 0.886 for the second.

First: NCI-H1703
Second: NCI-H647
The relative viability of the first is lower: 0.236 for the first, 0.409 for the second.

First: LK-2
Second: NCI-H2126
The relative viability of the first is higher: 0.567 for the first, 0.496 for the second.

SK-MES-1 gave a relative viability of 0.4.
